Laboratory results as given in EP0658547B1, “N-pyrazolyl carbamate derivative, agricultural/horticultural fungicide containing the same as active ingredient and production intermediate thereof” (MITSUBISHI CHEMICAL CORPORATION, priority 1993, dated 1995).

Legend:
[1] = tested on: Puccinia recondita; test: Preventive activity on wheat brown rust (foliar application, spray inoculation); format: in vivo; details: 200 ppm active ingredient, wettable powder, foliar application on wheat plants (var. Norin No. 61), moist chamber 22°C 15 hours, then 7 days
Method: Test Example 2 Preventive activity on wheat brown Wettable powders prepared according to the same manner as that described in Formulation Example 1 were diluted with water to the predetermined concentration and then applied by foliar application on wheat plants (var. Norin No. 61) at the 1 to 2 leaf stage grown in pots of 6 cm in diameter at a ratio of 10 ml per one pot. After the chemical solution was air-dried, a spore suspension obtained by pulverizing the leaf of wheat infected with Puccinia recondita was spray-inoculated. After inoculation, the wheat seedling was maintained in a moist chamber at 22°C for 15 hours and was allowed to stand on a water tank in a green house for 7 days. For evaluation, the diseased area ratio of each leaf was measured and the preventive value was calculated from the following equation: The preventive value (%) = (average diseased area ratio in untreated plot) (- (average diseased area ratio in treated plot))/((average diseased area ratio in untreated plot))x 100 [formula]

[2] = tested on: Erysiphe graminis; test: Preventive activity on wheat powdery mildew (foliar application, spray inoculation); format: in vivo; details: 200 ppm active ingredient, wettable powder, foliar application on wheat plants (var. Norin No. 61), 7 to 10 days after inoculation
Method: Test Example 1 Preventive activity on wheat powdery mildow
Wettable powders prepared according to the same manner as that described in Formulation Example 1 were diluted with water to the predetermined concentration and then applied by foliar application on wheat plants (var. Norin No. 61) at the 1 to 2 leaf stage grown in pots of 6 cm in diameter at a ratio of 10 ml per one pot. After the chemical solution was air-dried, a spore suspension obtained from the leaf of wheat infected with Erysiphe graminis was spray-inoculated. After inoculation, the seedling of wheat was allowed to stand at room temperature for 7 to 10 days.
For evaluation, the diseased area ratio of each leaf was measured and the preventive value was calculated from the following equation: The preventive value (%) = (average diseased area ratio in untreated plot) (- (average diseased area ratio in treated plot))/((average diseased area ratio in untreated plot))x 100 [formula]
The test compound No. cited in the Table 2 corresponds to the compound No. of Table 1.

COC(=O)Nc1c(OCc2cc(C)ccc2C)c(C)nn1C [compound No. 48, methyl N-{1,3-dimethyl-4-(2,5-dimethylbenzyloxy)pyrazole-5-yl} carbamate]
Preventive value 2 (%) [1]: 86%
Preventive value 1 (%) [2]: 93%

C#CCN(C(=O)OC)c1c(OCc2cc(C)ccc2C)c(C)nn1C [compound No. 50, methyl N-{1,3-dimethyl-4-(2,5-dimethylbenzyloxy)pyrazole-5-yl}-N-propargyl-carbamate]
Preventive value 2 (%) [1]: 100%
Preventive value 1 (%) [2]: 100%

C#CCN(C(=O)OC)c1c(CON=C(C)c2ccc(C(F)(F)F)cc2)c(C)nn1C [compound No. 169, methyl N-[1,3-dimethyl-4-{(α-methyl-4-trifluoromethyl-benzylidene)aminooxymethylpyrazole-5-yl}]-N-propargyl-carbamate]
Preventive value 2 (%) [1]: 100%
Preventive value 1 (%) [2]: 100%
